# Assay results published in paper PMC9532951, “Identification and characterization of a novel SNAT2 (SLC38A2) inhibitor reveals synergy with glucose transport inhibition in cancer cells” (Frontiers in Pharmacology, 2022).
# Assays:
# SNAT1 and SNAT2 = target: T1, SNAT1 and SNAT2 (Homo sapiens, UniProt Q96QD8); experiment: FMP assay in HCC1806 clones C10 (ASCT2ko) and D126 (ASCT2ko, SNAT2ko); format: cell-based; details: 10 mM; HCC1806 wildtype and C10 cells
# T1 construct: endogenous in cells; host or cells: HCC1806 clone C10 (ASCT2ko) and clone D126 (ASCT2ko, SNAT2ko), amino acid depleted for 24 h
# T1 sequence (Q96QD8 1-506): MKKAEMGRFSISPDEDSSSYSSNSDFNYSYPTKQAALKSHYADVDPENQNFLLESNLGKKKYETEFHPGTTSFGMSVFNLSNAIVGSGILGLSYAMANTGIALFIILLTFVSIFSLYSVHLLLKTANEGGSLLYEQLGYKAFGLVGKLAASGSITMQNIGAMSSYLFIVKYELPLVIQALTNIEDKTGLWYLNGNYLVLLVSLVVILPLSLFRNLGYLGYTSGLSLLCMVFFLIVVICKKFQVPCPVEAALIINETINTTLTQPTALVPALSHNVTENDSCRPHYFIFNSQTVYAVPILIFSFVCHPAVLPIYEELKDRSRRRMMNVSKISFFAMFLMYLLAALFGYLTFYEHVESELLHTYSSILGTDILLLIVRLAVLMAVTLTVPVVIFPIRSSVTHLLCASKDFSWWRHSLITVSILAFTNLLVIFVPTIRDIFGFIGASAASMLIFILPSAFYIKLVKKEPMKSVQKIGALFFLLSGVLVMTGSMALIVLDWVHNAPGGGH
# B0AT1 (SLC6A19) = target: T2, B0AT1 (SLC6A19) (Homo sapiens, UniProt Q695T7); experiment: Leucine uptake in CHO cells stably expressing human B0AT1 and collectrin; format: cell-based; details: 150 µM leucine, hit compounds at 30 µM, n = 3
# T2 construct: expressed in transfected cells
# T2 sequence (Q695T7 1-634): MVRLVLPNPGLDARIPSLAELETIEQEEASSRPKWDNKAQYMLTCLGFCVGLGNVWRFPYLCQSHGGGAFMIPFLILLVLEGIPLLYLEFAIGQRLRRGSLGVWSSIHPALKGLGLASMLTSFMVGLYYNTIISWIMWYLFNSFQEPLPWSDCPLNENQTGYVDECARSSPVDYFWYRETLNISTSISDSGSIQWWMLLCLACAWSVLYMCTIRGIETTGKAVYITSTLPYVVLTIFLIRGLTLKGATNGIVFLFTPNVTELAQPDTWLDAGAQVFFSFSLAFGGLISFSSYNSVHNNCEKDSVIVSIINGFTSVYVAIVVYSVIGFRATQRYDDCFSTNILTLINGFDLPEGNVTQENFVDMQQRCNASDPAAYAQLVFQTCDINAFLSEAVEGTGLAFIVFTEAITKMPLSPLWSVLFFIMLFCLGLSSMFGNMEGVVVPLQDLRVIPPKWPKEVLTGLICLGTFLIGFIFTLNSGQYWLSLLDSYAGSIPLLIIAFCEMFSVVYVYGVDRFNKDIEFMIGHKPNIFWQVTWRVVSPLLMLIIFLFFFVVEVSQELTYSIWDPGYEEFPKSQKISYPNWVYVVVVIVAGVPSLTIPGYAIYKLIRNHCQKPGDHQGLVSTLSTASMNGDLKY
# T2 sequence (Q9HBJ8 15-222 partner): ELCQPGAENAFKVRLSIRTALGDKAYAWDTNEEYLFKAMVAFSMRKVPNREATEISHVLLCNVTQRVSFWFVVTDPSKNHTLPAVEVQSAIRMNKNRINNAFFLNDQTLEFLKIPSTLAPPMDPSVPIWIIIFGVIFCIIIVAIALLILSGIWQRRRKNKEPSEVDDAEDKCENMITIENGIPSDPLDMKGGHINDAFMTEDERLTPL
FMP signal as substrate (SNAT1 and SNAT2),"Leucine uptake, Mean (B0AT1 (SLC6A19)) [nmol / mg protein x 6 min]",SMILES
strong FMP signal,,"C[N+](C)(C)CC(=O)O [Betaine, betaine]"
,55.2874,"Cc1ccc(S(=O)(=O)N(C)c2ccsc2C(=O)NCc2ccccc2C(F)(F)F)cc1 [Compound 57_E, 3-(N-methyl (4-methylphenyl)sulfonamido)-N-(2-trifluoromethylbenzyl)thiophene-2-carboxamide]"
